Measurements published in paper PMC8453901, “GLPG1205, a GPR84 Modulator: Safety, Pharmacokinetics, and Pharmacodynamics in Healthy Subjects” (Clinical Pharmacology in Drug Development, 2021).
Where “and” joins values, the source holds several entries; their conditions need not be identical. Identical values can stand only once.

Legend:
CYP2B6 = tested on: CYP2B6; parameters: method as in data on file at Galapagos; settings: in vitro; ref data on file at Galapagos; cited from earlier work
[1] = Safety and tolerability, study 1 MAD part; assay type: in vivo, human
Method: Safety and tolerability were assessed on the basis of adverse events (AEs), which were monitored throughout both studies. Additional safety assessments included vital signs (including supine [and standing in study 2] heart rate, systolic and diastolic blood pressure, and oral body temperature), 12‐lead electrocardiogram (ECG), clinical laboratory tests (hematology, coagulation [study 2 only], serum/plasma chemistry, urinalysis, urine drug screen, serology, and alcohol breath test), and a comprehensive physical examination. […] In the MAD part of study 1, all additional safety assessments were performed at screening; days 1, 2, 8, 14, and 15; and at follow‐up. In study 2, additional safety assessments were performed at screening (between 21 and 2 days before the first study drug administration); days 1, 2, 5, 10, 14, 15, and 20 (clinical laboratory tests were not performed on day 20); at early discontinuation; and at follow‐up. For study 2, renal function tests (measurement of estimated creatinine clearance rate using the Cockcroft‐Gault equation) were also included in the clinical laboratory tests for safety assessment.
In both studies, the safety analysis was descriptive and focused on changes from baseline and treatment‐emergent findings.

In the case of O=c1nc(OC[C@@H]2COCCO2)cc2n1CCc1cc(C#CC3CC3)ccc1-2 [GLPG1205, 9‐cyclopropylethynyl‐2‐((S)‐1‐[1,4]dioxan‐2‐ylmethoxy)‐6,7‐dihydropyrimido[6,1‐a]isoquinolin‐4‐one], the “inhibition of CYP2B6” value (CYP2B6) is listed as “weak inhibition”, the “Abdominal discomfort (TEAE)” value ([1]; 50 mg QD (n = 6)) is listed as 0 number of subjects (%) and the “Abdominal distension (TEAE)” value ([1]; 50 mg QD (n = 6)) is listed as 0 number of subjects (%). For the same molecule, the “Abdominal pain (TEAE)” value ([1]; 50 mg QD (n = 6)) was 0 number of subjects (%), the “Abdominal pain upper (TEAE)” value ([1]; 50 mg QD (n = 6)) was 0 number of subjects (%) and the “Any TEAE” value ([1]; 50 mg QD (n = 6)) was 2 (33.3) number of subjects (%). The “Decreased appetite (TEAE)” value ([1]; 50 mg QD (n = 6)) was 0 number of subjects (%), the “Dehydration (TEAE)” value ([1]; 50 mg QD (n = 6)) was 0 number of subjects (%) and the “Diarrhea (TEAE)” value ([1]; 50 mg QD (n = 6)) was 1 (16.7) number of subjects (%). The “Disturbance in attention (TEAE)” value ([1]; 50 mg QD (n = 6)) was 0 number of subjects (%), the “Dizziness (TEAE)” value ([1]; 50 mg QD (n = 6)) was 0 number of subjects (%) and the “Dry skin (TEAE)” value ([1]; 50 mg QD (n = 6)) was 1 (16.7) number of subjects (%). For the same molecule, the “Ecchymosis (TEAE)” value ([1]; 50 mg QD (n = 6)) was 0 number of subjects (%), the “Erythema (TEAE)” value ([1]; 50 mg QD (n = 6)) was 0 number of subjects (%) and the “Fatigue (TEAE)” value ([1]; 50 mg QD (n = 6)) was 0 number of subjects (%). The “Flatulence (TEAE)” value ([1]; 50 mg QD (n = 6)) was 0 number of subjects (%), the “Gastrointestinal disorders (TEAE)” value ([1]; 50 mg QD (n = 6)) was 1 (16.7) number of subjects (%) and the “General disorders and administration site conditions (TEAE)” value ([1]; 50 mg QD (n = 6)) was 0 number of subjects (%). The “Headache (TEAE)” value ([1]; 50 mg QD (n = 6)) was 0 number of subjects (%), the “Hot flush (TEAE)” value ([1]; 50 mg QD (n = 6)) was 0 number of subjects (%) and the “Metabolism and nutrition disorders (TEAE)” value ([1]; 50 mg QD (n = 6)) was 0 number of subjects (%). For the same molecule, the “Musculoskeletal and connective tissue disorders (TEAE)” value ([1]; 50 mg QD (n = 6)) was 0 number of subjects (%), the “Musculoskeletal stiffness (TEAE)” value ([1]; 50 mg QD (n = 6)) was 0 number of subjects (%) and the “Nausea (TEAE)” value ([1]; 50 mg QD (n = 6)) was 0 number of subjects (%). For the same molecule, the “Nervous system disorders (TEAE)” value ([1]; 50 mg QD (n = 6)) was 0 number of subjects (%), the “Oropharyngeal pain (TEAE)” value ([1]; 50 mg QD (n = 6)) was 0 number of subjects (%) and the “Respiratory, thoracic, and mediastinal disorders (TEAE)” value (“Respiratory, thoracic” for short) ([1]; 50 mg QD (n = 6)) was 0 number of subjects (%). The “Skin and subcutaneous tissue disorders (TEAE)” value ([1]; 50 mg QD (n = 6)) was 1 (16.7) number of subjects (%), the “Somnolence (TEAE)” value ([1]; 50 mg QD (n = 6)) was 0 number of subjects (%) and the “Vascular disorders (TEAE)” value ([1]; 50 mg QD (n = 6)) was 0 number of subjects (%). The “Vomiting (TEAE)” value ([1]; 50 mg QD (n = 6)) was 0 number of subjects (%), the “subjects with treatment-emergent abnormality during physical examination” value ([1]; 50 mg once daily) was 1 n and the “Abdominal discomfort (TEAE)” value ([1]; 100 mg QD (n = 6)) was 1 (16.7) number of subjects (%). The “Abdominal distension (TEAE)” value ([1]; 100 mg QD (n = 6)) was 0 number of subjects (%), the “Abdominal pain (TEAE)” value ([1]; 100 mg QD (n = 6)) was 0 number of subjects (%) and the “Abdominal pain upper (TEAE)” value ([1]; 100 mg QD (n = 6)) was 1 (16.7) number of subjects (%). The “Any TEAE” value ([1]; 100 mg QD (n = 6)) was 5 (83.3) number of subjects (%), the “Decreased appetite (TEAE)” value ([1]; 100 mg QD (n = 6)) was 0 number of subjects (%) and the “Dehydration (TEAE)” value ([1]; 100 mg QD (n = 6)) was 0 number of subjects (%). For the same molecule, the “Diarrhea (TEAE)” value ([1]; 100 mg QD (n = 6)) was 2 (33.3) number of subjects (%), the “Disturbance in attention (TEAE)” value ([1]; 100 mg QD (n = 6)) was 0 number of subjects (%) and the “Dizziness (TEAE)” value ([1]; 100 mg QD (n = 6)) was 0 number of subjects (%). For the same molecule, the “Dry skin (TEAE)” value ([1]; 100 mg QD (n = 6)) was 0 number of subjects (%), the “Ecchymosis (TEAE)” value ([1]; 100 mg QD (n = 6)) was 1 (16.7) number of subjects (%) and the “Erythema (TEAE)” value ([1]; 100 mg QD (n = 6)) was 1 (16.7) number of subjects (%). For the same molecule, the “Fatigue (TEAE)” value ([1]; 100 mg QD (n = 6)) was 0 number of subjects (%), the “Flatulence (TEAE)” value ([1]; 100 mg QD (n = 6)) was 0 number of subjects (%) and the “Gastrointestinal disorders (TEAE)” value ([1]; 100 mg QD (n = 6)) was 3 (50.0) number of subjects (%). The “General disorders and administration site conditions (TEAE)” value ([1]; 100 mg QD (n = 6)) was 0 number of subjects (%), the “Headache (TEAE)” value ([1]; 100 mg QD (n = 6)) was 3 number of subjects (%) and 3 (50.0) number of subjects (%) and the “Hot flush (TEAE)” value ([1]; 100 mg QD (n = 6)) was 0 number of subjects (%). The “Metabolism and nutrition disorders (TEAE)” value ([1]; 100 mg QD (n = 6)) was 0 number of subjects (%), the “Musculoskeletal and connective tissue disorders (TEAE)” value ([1]; 100 mg QD (n = 6)) was 0 number of subjects (%) and the “Musculoskeletal stiffness (TEAE)” value ([1]; 100 mg QD (n = 6)) was 0 number of subjects (%). For the same molecule, the “Nausea (TEAE)” value ([1]; 100 mg QD (n = 6)) was 1 (16.7) number of subjects (%), the “Nervous system disorders (TEAE)” value ([1]; 100 mg QD (n = 6)) was 3 (50.0) number of subjects (%) and the “Oropharyngeal pain (TEAE)” value ([1]; 100 mg QD (n = 6)) was 1 (16.7) number of subjects (%). For the same molecule, the “Respiratory, thoracic” value ([1]; 100 mg QD (n = 6)) was 1 (16.7) number of subjects (%), the “Skin and subcutaneous tissue disorders (TEAE)” value ([1]; 100 mg QD (n = 6)) was 2 (33.3) number of subjects (%) and the “Somnolence (TEAE)” value ([1]; 100 mg QD (n = 6)) was 0 number of subjects (%). The “Vascular disorders (TEAE)” value ([1]; 100 mg QD (n = 6)) was 0 number of subjects (%), the “Vomiting (TEAE)” value ([1]; 100 mg QD (n = 6)) was 0 number of subjects (%) and the “subjects with treatment-emergent abnormality during physical examination” value ([1]; 100 mg once daily) was 1 n. The “Abdominal discomfort (TEAE)” value ([1]; 200 mg QD (n = 6)) was 1 (16.7) number of subjects (%), the “Abdominal distension (TEAE)” value ([1]; 200 mg QD (n = 6)) was 1 (16.7) number of subjects (%) and the “Abdominal pain (TEAE)” value ([1]; 200 mg QD (n = 6)) was 1 (16.7) number of subjects (%). The “Abdominal pain upper (TEAE)” value ([1]; 200 mg QD (n = 6)) was 0 number of subjects (%), the “Any TEAE” value ([1]; 200 mg QD (n = 6)) was 5 (83.3) number of subjects (%) and the “Decreased appetite (TEAE)” value ([1]; 200 mg QD (n = 6)) was 1 (16.7) number of subjects (%). The “Dehydration (TEAE)” value ([1]; 200 mg QD (n = 6)) was 2 (33.3) number of subjects (%), the “Diarrhea (TEAE)” value ([1]; 200 mg QD (n = 6)) was 1 (16.7) number of subjects (%) and the “Disturbance in attention (TEAE)” value ([1]; 200 mg QD (n = 6)) was 1 (16.7) number of subjects (%). For the same molecule, the “Dizziness (TEAE)” value ([1]; 200 mg QD (n = 6)) was 1 (16.7) number of subjects (%), the “Dry skin (TEAE)” value ([1]; 200 mg QD (n = 6)) was 0 number of subjects (%) and the “Ecchymosis (TEAE)” value ([1]; 200 mg QD (n = 6)) was 0 number of subjects (%). The “Erythema (TEAE)” value ([1]; 200 mg QD (n = 6)) was 0 number of subjects (%), the “Fatigue (TEAE)” value ([1]; 200 mg QD (n = 6)) was 3 (50.0) number of subjects (%) and the “Flatulence (TEAE)” value ([1]; 200 mg QD (n = 6)) was 1 (16.7) number of subjects (%). For the same molecule, the “Gastrointestinal disorders (TEAE)” value ([1]; 200 mg QD (n = 6)) was 4 (66.7) number of subjects (%), the “General disorders and administration site conditions (TEAE)” value ([1]; 200 mg QD (n = 6)) was 3 (50.0) number of subjects (%) and the “Headache (TEAE)” value ([1]; 200 mg QD (n = 6)) was 4 number of subjects (%) and 4 (66.7) number of subjects (%). The “Hot flush (TEAE)” value ([1]; 200 mg QD (n = 6)) was 1 (16.7) number of subjects (%), the “Metabolism and nutrition disorders (TEAE)” value ([1]; 200 mg QD (n = 6)) was 2 (33.3) number of subjects (%) and the “Musculoskeletal and connective tissue disorders (TEAE)” value ([1]; 200 mg QD (n = 6)) was 1 (16.7) number of subjects (%). The “Musculoskeletal stiffness (TEAE)” value ([1]; 200 mg QD (n = 6)) was 1 (16.7) number of subjects (%), the “Nausea (TEAE)” value ([1]; 200 mg QD (n = 6)) was 2 (33.3) number of subjects (%) and the “Nervous system disorders (TEAE)” value ([1]; 200 mg QD (n = 6)) was 5 (83.3) number of subjects (%). The “Oropharyngeal pain (TEAE)” value ([1]; 200 mg QD (n = 6)) was 2 (33.3) number of subjects (%), the “Respiratory, thoracic” value ([1]; 200 mg QD (n = 6)) was 2 (33.3) number of subjects (%) and the “Skin and subcutaneous tissue disorders (TEAE)” value ([1]; 200 mg QD (n = 6)) was 0 number of subjects (%). For the same molecule, the “Somnolence (TEAE)” value ([1]; 200 mg QD (n = 6)) was 1 (16.7) number of subjects (%), the “Vascular disorders (TEAE)” value ([1]; 200 mg QD (n = 6)) was 1 (16.7) number of subjects (%) and the “Vomiting (TEAE)” value ([1]; 200 mg QD (n = 6)) was 2 (33.3) number of subjects (%). For the same molecule, the “subjects with treatment-emergent abnormality during physical examination” value ([1]; 200 mg once daily) was 2 n, the “TEAE leading to study drug withdrawal: abdominal pain” value ([1]; 200-mg once-daily group) was 1 n and the “TEAE leading to study drug withdrawal: decreased appetite” value ([1]; 200-mg once-daily group) was 1 n. The “TEAE leading to study drug withdrawal: dehydration” value ([1]; 200-mg once-daily group) was 2 n, the “TEAE leading to study drug withdrawal: diarrhea” value ([1]; 200-mg once-daily group) was 1 n and the “TEAE leading to study drug withdrawal: dizziness” value ([1]; 200-mg once-daily group) was 1 n. The “TEAE leading to study drug withdrawal: fatigue” value ([1]; 200-mg once-daily group) was 2 n, the “TEAE leading to study drug withdrawal: flatulence” value ([1]; 200-mg once-daily group) was 1 n and the “TEAE leading to study drug withdrawal: headache” value ([1]; 200-mg once-daily group) was 3 n. For the same molecule, the “TEAE leading to study drug withdrawal: musculoskeletal stiffness” value ([1]; 200-mg once-daily group) was 1 n, the “TEAE leading to study drug withdrawal: nausea” value ([1]; 200-mg once-daily group) was 1 n and the “TEAE leading to study drug withdrawal: vomiting” value ([1]; 200-mg once-daily group) was 2 n. The “subjects in whom study drug was withdrawn” value ([1]; 200-mg once-daily group) was 3 subjects, the “subjects with abnormally high hematocrit, hemoglobin and red blood cell count” value ([1]; 200-mg once-daily group, day 8) was “Two” and the maximum tolerated dose ([1]; multiple doses, healthy male subjects) was 100 mg once daily.
